Reference: US20100286415A1, “SLEEP-IMPROVING AGENT” (OSAKA BIOSCIENCE INSTITUTE, priority 2007, published 2010)

How the values were obtained:
C57BL/6 mice = test: EEG/EMG sleep recording in mice after oral administration (Test Example 3); format: in vivo, mouse; conditions: 10 mg/kg oral, administered at start of dark period, compared to vehicle (water), FIG. 3
Method: C57BL/6 mice (male, 10 weeks old, weighing 25-28 g) were purchased from Oriental BioService Inc.
The mice were individually housed in acrylic cages placed in a sound insulation chamber. They were given solid mouse food (food name: Labo MR Stock) in a 12-hour light and dark cycle (light period starting at 8 a.m.), with free access to food and drinking water.
(§1) An operation to implant electrodes for measuring EEG/EMG was performed on the mice. The mice were placed in a chamber for recovery for 10 days, and recovered. Then, the mice were moved to a chamber for recording, and measurement cables were connected to the electrodes. The mice were adapted to the environment for 4 days.
(§2) Oxypinnatanine was dissolved in water, and a dosage of 10 mg/kg was orally administered using a probe. Administration was carried out at 20:00 (starting time of a dark period). On day 1, water was solely administered as a control containing only the solvent. On day 2, oxypinnatanine was administered (n=4).
(§3) The EEG and EMG were amplified (EEG: 0.5-30 Hz, EMG: 20-200 Hz), and then digitalized at the sampling speed of 128 Hz for recording. […] EEG data over 12 hours after administration were analyzed. Then, waking time, non-REM sleep time, and REM sleep time per hour were calculated. Further, the EEG power spectrum was analyzed, and the amplitudes of theta waves and delta waves were thereby analyzed.

Sprague-Dawley rats = test: EEG/EMG sleep recording in rats after oral administration (Test Example 1); format: in vivo, rat; conditions: 100 mg/kg oral, administered at start of dark period, compared to vehicle (water), FIG. 1
Method: Sprague-Dawley rats (male, 8 weeks old, weighing 250-280 g) were purchased from Japan SLC, Inc.
The rats were individually housed in acrylic cages placed in a sound insulation chamber. They were given solid rat food (food name: Labo MR Stock) in a 12-hour light and dark cycle (light period starting at 7 a.m.), with free access to food and drinking water.
as §1, with “rats (Huang Z. L. et al., J. Neurosci. 2003, 23(14), 5975-83., Okada T. et al., Biochem. Biophys. Res. Commun. 2003, 312(1), 29-34).” for “mice.”, “rats” for “mice”
Oxypinnatanine was dissolved in water, and a dosage of 100 mg/kg was orally administered using a probe. Administration was carried out at 19:00 (starting time of a dark period). […]
as §3, with “at a” for “at the”

Slc:ICR mice = test: Locomotor assay (amount of locomotion) in mice, infrared monitor (Test Example 2); format: in vivo, mouse; conditions: 100 mg/kg oral, administered at start of dark period, compared to vehicle (water), FIG. 2
Method: Slc:ICR mice (male, 10 weeks old, weighing 38-40 g) were purchased from Japan SLC, Inc.
The mice were housed in groups (8 mice per group) in acrylic cages placed in a chamber for monitoring the amount of animal behavior, and were habituated for 7 days. They were given solid rat food (food name: Labo MR Stock) in a 12-hour light and dark cycle (light period starting at 7 a.m.), with free access to food and drinking water.
as §2, with “dosage weight” for “dosage”, “100” for “10”, “19:00” for “20:00”, “(n=8).” for “(n=4).”
An infrared monitor was used to detect infrared light emitted from the animals to count the amount of locomotion. The infrared monitor recorded continuously for 12 hours. Recording was conducted using a Biotex 16CH Act Monitor BAI2216 (Biotex). For analysis, the time-dependent change in the amount of locomotion and the total amount of locomotion in each hour were calculated.

| melting point | SMILES | Total non-REM sleep time during 4 hours after administration (C57BL/6 mice) | Total non-REM sleep time during 6 hours after administration (Sprague-Dawley rats) | Total amount of locomotion during 6 hours after administration (Slc:ICR mice) |
| --- | --- | --- | --- | --- |
| 152 to 153 °C (dec.) | NC(CC(O)C(=O)NC1OCC=C1CO)C(=O)O (stereo not shown) (hydrate or solvate) [Oxypinnatanine, oxypinnatanine] |  |  |  |
|  | NC(CC(O)C(=O)NC1OCC=C1CO)C(=O)O (stereo not shown) [Oxypinnatanine, oxypinnatanine] | effect of increasing non-REM sleep time with statistical significance | effect of increasing non-REM sleep time | statistically significant decrease in the amount of locomotion |
